The text below walks through data of patent publication US8785459B2, “Quinazoline compounds as kinase inhibitors” (Development Center for Biotechnology, priority 2011, dated 2014).

What all share (type): biochemical
Assay [1] addresses B-Raf (V600E) (Homo sapiens (Human), UniProt P15056, V600E). The experiment in a line: Raf kinase assay (B-Raf (V600E)), [33P] incorporation into MEK1(K97R). The method in brief: (§1)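 [33P] transfer to kinase-dead MEK1(K97R) substrate (500 ng) measured after 30 min at 30 °C in Tris pH 7.5 buffer containing 8 μM ATP. Enzyme inputs were 2 ng for C-Raf and 5 ng for B-Raf and B-Raf V600E. Duplicate 3-fold serial dilutions gave the half-maximal inhibitory concentration.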

Assay [2] has as its target C-Raf (Homo sapiens (Human), UniProt P04049). Briefly: Raf kinase assay (C-Raf), [33P] incorporation into MEK1(K97R). The method in brief:
as §1

Assay [3] addresses B-Raf (Homo sapiens (Human), UniProt P15056). Briefly: Raf kinase assay (B-Raf), [33P] incorporation into MEK1(K97R). The note with it: for inhibition at 1 µM / B-Raf inhibition at 1.0 μM: 1.0 μM compound; for inhibition at 1 µM: read-out: B-Raf inhibition at 1.0 μM. Summed up:
as §1

Chain of B-Raf (V600E) (P15056 whole entry V600E): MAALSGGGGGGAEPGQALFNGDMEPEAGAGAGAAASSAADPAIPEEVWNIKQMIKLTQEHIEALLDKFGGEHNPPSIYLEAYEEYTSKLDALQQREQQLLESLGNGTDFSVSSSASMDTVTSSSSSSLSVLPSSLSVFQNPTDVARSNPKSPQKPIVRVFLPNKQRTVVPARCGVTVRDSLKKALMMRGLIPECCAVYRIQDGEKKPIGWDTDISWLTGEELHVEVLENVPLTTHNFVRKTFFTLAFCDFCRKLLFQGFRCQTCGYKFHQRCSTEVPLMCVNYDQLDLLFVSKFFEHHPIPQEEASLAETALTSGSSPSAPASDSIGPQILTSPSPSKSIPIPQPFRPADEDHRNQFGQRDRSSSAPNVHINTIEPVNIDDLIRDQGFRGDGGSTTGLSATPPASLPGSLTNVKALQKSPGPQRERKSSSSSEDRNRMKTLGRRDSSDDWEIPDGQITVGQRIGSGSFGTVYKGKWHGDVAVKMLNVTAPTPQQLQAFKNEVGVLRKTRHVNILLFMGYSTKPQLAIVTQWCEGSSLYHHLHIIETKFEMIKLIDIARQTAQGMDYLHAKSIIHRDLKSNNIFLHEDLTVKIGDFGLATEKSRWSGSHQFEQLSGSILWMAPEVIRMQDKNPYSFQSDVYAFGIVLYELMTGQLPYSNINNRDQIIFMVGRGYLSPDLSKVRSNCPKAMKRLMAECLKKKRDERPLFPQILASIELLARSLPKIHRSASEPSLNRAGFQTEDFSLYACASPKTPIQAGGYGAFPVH
Chain of C-Raf (P04049 whole entry): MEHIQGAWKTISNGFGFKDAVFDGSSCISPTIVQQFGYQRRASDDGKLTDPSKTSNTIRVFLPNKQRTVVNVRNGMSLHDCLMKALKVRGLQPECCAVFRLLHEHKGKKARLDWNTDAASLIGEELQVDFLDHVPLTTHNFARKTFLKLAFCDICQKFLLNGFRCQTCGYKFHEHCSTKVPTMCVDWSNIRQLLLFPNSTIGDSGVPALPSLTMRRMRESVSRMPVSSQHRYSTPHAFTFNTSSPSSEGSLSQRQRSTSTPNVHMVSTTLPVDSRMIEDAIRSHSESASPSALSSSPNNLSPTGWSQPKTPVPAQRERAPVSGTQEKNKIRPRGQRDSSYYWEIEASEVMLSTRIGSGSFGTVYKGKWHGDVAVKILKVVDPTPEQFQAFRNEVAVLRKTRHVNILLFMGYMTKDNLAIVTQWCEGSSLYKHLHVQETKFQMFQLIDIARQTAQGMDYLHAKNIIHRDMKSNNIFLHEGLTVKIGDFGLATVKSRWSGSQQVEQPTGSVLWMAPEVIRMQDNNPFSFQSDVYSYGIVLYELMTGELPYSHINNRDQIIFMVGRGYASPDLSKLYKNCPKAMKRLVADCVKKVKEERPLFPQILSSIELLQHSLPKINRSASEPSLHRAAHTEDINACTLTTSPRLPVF
Chain of B-Raf (P15056 whole entry): as the sequence (P15056 whole entry V600E) above, with E600V counted along it

As a reminder, the IC50 is the point on the concentration scale where inhibition reaches its midpoint. Read a low IC50 as greater potency. For orientation: inhibition means the drop in the measured response relative to a control, in per cent. Turning to `CS(=O)(=O)Nc1cccc(-c2ccc3ncnc(Nc4cccc5[nH]ncc45)c3c2)c1` [Compound 95, N-(3-(4-(1H-indazol-4-ylamino)quinazolin-6-yl)phenyl)methanesulfonamide], the IC50 was 534 nM in assay [1], 1290 nM in assay [2] and 430 nM in assay [3]. The inhibition at 1 µM in assay [3] is 70.9%.

Consider `COc1cc(-c2ccc3ncnc(Nc4cccc5c4cnn5C)c3c2)ccc1O` [Compound 99, 2-methoxy-4-(4-(1-methyl-1H-indazol-4-ylamino)quinazolin-6-yl)phenol], for which the IC50 in assay [1] turned out to be 451 nM; in assay [2], 3910 nM; in assay [3] it was 358 nM. The inhibition at 1 µM in assay [3] is 61.1%.

With `Cc1ccc(F)cc1-c1ccc2ncnc(Nc3cccc4[nH]ncc34)c2c1` [Compound 104, 6-(5-fluoro-2-methylphenyl)-N-(1H-indazol-4-yl)quinazolin-4-amine], the half-maximal inhibitory concentration (IC50) came to 357 nM in assay [1], 778 nM in assay [2] and 235 nM in assay [3]. For the same compound, the inhibition at 1 µM in assay [3] amounted to 81.1%.

`COc1cccc(-c2ccc3ncnc(Nc4cccc5[nH]ncc45)c3c2)c1OC` [Compound 105, 6-(2,3-dimethoxyphenyl)-N-(1H-indazol-4-yl)quinazolin-4-amine]: the values for the IC50 in assay [1], in assay [2] and in assay [3] were 515 nM, 2130 nM and 380 nM, respectively. Also, in assay [3], the inhibition at 1 µM turned out to be 72.6%.

Take `CN(C)c1ccc(-c2ccc3ncnc(Nc4cccc(O)c4)c3c2)cc1` [Compound 106, 3-(6-(4-(dimethylamino)phenyl)quinazolin-4-ylamino)phenol]: the IC50 was found to be 292 nM in assay [1], 3190 nM in assay [2] and 272 nM in assay [3]. The inhibition at 1 µM in assay [3] stood at 78.7%.

For the compound `NS(=O)(=O)c1ccc(-c2ccc3ncnc(Nc4cccc5[nH]ncc45)c3c2)cc1` [Compound 107, 4-(4-(1H-indazol-4-ylamino)quinazolin-6-yl)benzenesulfonamide], the IC50 in assay [1] was 328 nM; in assay [2] it was 677 nM; in assay [3] it was 345 nM. For the same compound, the inhibition at 1 µM in assay [3] came to 75.4%.

Turning to `CCS(=O)(=O)Nc1cccc(-c2ccc3ncnc(Nc4cccc5[nH]ncc45)c3c2)c1` [Compound 108, N-(3-(4-(1H-indazol-4-ylamino)quinazolin-6-yl)phenyl)ethanesulfonamide], the values for the 50% inhibitory concentration (IC50) in assay [1], in assay [2] and in assay [3] were 244 nM, 680 nM and 221 nM, respectively. In addition, the inhibition at 1 µM in assay [3] worked out at 81.1%.

`CS(=O)(=O)c1ccc(-c2ccc3ncnc(Nc4cccc5[nH]ncc45)c3c2)cc1` [Compound 110, N-(1H-indazol-4-yl)-6-(4-(methylsulfonyl)phenyl)quinazolin-4-amine]: the IC50 was 273 nM in assay [1], 650 nM in assay [2] and 248 nM in assay [3]. For the same compound, the inhibition at 1 µM in assay [3] is 81.8%.

Take `COc1ccc(-c2ccc3nccc(Nc4cccc5[nH]ncc45)c3c2)cc1F` [Compound 112, 6-(3-fluoro-4-methoxyphenyl)-N-(1H-indazol-4-yl)quinolin-4-amine]: the IC50 in assay [1] turned out to be 207 nM; in assay [2], 619 nM; in assay [3], 182 nM. The inhibition at 1 µM in assay [3] stood at 80.2%.

`COc1ccc(-c2ccc3nccc(Nc4cccc5[nH]ncc45)c3c2)cc1OC` [Compound 113, 6-(3,4-dimethoxyphenyl)-N-(1H-indazol-4-yl)quinolin-4-amine]: the IC50 is 291 nM in assay [1], 972 nM in assay [2] and 263 nM in assay [3]. Moreover, the inhibition at 1 µM in assay [3] was determined as 75.5%.

Turning to `COc1ccc(-c2ccc3nccc(Nc4cccc5[nH]ncc45)c3c2)cc1Cl` [Compound 115, 6-(3-chloro-4-methoxyphenyl)-N-(1H-indazol-4-yl)quinolin-4-amine], the IC50 amounted to 278 nM in assay [1], 735 nM in assay [2] and 267 nM in assay [3]. Further, the inhibition at 1 µM in assay [3] was found to be 76.6%.

For `COc1cc(-c2ccc3ncnc(Nc4cccc(OC(F)F)c4)c3c2)ccc1O` [Compound 118, 4-(4-(3-(difluoromethoxy)phenylamino)quinazolin-6-yl)-2-methoxyphenol], the results for the half-maximal inhibitory concentration (IC50) in assay [1], in assay [2] and in assay [3] were 525 nM, 988 nM and 548 nM, respectively. For the same compound, the inhibition at 1 µM in assay [3] came out at 68.2%.

For `COc1cc(-c2ccc3ncnc(Nc4ccccc4F)c3c2)ccc1O` [Compound 119, 4-(4-(2-fluorophenylamino)quinazolin-6-yl)-2-methoxyphenol], the IC50 in assay [1] was 633 nM; in assay [2] it was 1440 nM; in assay [3] it was 543 nM. Moreover, in assay [3], the inhibition at 1 µM amounted to 67.1%.

Turning to `Nc1ccc(-c2ccc3nccc(Nc4cccc5[nH]ncc45)c3c2)cc1` [Compound 121, 6-(4-aminophenyl)-N-(1H-indazol-4-yl)quinolin-4-amine], the 50% inhibitory concentration (IC50) in assay [1] was 284 nM; in assay [2] it was 753 nM; in assay [3] it was 227 nM. In addition, the inhibition at 1 µM in assay [3] came out at 76.2%.

For `CCCS(=O)(=O)Nc1cccc(-c2ccc3nccc(Nc4cccc5[nH]ncc45)c3c2)c1` [Compound 122, N-(3-(4-(1H-indazol-4-ylamino)quinolin-6-yl)phenyl)propane-1-sulfonamide], the IC50 amounted to 264 nM in assay [1], 439 nM in assay [2] and 259 nM in assay [3]. The inhibition at 1 µM in assay [3] came out at 77.5%.

As to `COc1cccc(-c2ccc3nccc(Nc4cccc5[nH]ncc45)c3c2)c1` [Compound 123, N-(1H-indazol-4-yl)-6-(3-methoxyphenyl)quinolin-4-amine], the IC50 in assay [1] amounted to 263 nM; in assay [2], 688 nM; in assay [3] it was 231 nM. In addition, in assay [3], the inhibition at 1 µM worked out at 80.3%.

With `Fc1ccccc1-c1ccc2nccc(Nc3cccc4[nH]ncc34)c2c1` [Compound 125, 6-(2-fluorophenyl)-N-(1H-indazol-4-yl)quinolin-4-amine], the figures for the half-inhibitory concentration (IC50) in assay [1], in assay [2] and in assay [3] were 423 nM, 1030 nM and 285 nM, respectively. The inhibition at 1 µM in assay [3] is 71.2%.

In the case of `COc1cc(-c2ccc3ncnc(Nc4cccc5[nH]c(=O)[nH]c45)c3c2)ccc1O` [Compound 127, 4-(6-(4-hydroxy-3-methoxyphenyl)quinazolin-4-ylamino)-1H-benzo[d]imidazol-2(3H)-one], the concentration for half-maximal inhibition (IC50) came out at 1090 nM in assay [1], 8390 nM in assay [2] and 888 nM in assay [3]. The inhibition at 1 µM in assay [3] was found to be 53.5%.

With `COc1cc(-c2ccc3nccc(Nc4cc(NS(C)(=O)=O)ccc4F)c3c2)ccc1O` [Compound 128, N-(4-fluoro-3-(6-(4-hydroxy-3-methoxyphenyl)quinolin-4-ylamino)phenyl)methanesulfonamide], the IC50 in assay [1] stood at 4280 nM; in assay [2], 12800 nM; in assay [3] it was 4130 nM. The inhibition at 1 µM in assay [3] is 18.5%.

Consider `COc1cc(-c2ccc3ncnc(Nc4cc(NS(C)(=O)=O)ccc4F)c3c2)ccc1O` [Compound 129, N-(4-fluoro-3-(6-(4-hydroxy-3-methoxyphenyl)quinazolin-4-ylamino)phenyl)methanesulfonamide], for which the 50% inhibitory concentration (IC50) in assay [1] is 270 nM; in assay [2], 1060 nM; in assay [3], 240 nM. In addition, the inhibition at 1 µM in assay [3] is 77.5%.

In the case of `Oc1ccc(-c2ccc3ncnc(Nc4cccc5[nH]ncc45)c3c2)cc1` [Compound 131, 4-(4-(1H-indazol-4-ylamino)quinazolin-6-yl)phenol], the figures for the IC50 in assay [1], in assay [2] and in assay [3] were 547 nM, 4210 nM and 451 nM, respectively. In addition, the inhibition at 1 µM in assay [3] was determined as 80.1%.

`COc1cc(-c2ccc3ncnc(Nc4c(F)cccc4F)c3c2)ccc1O` [Compound 134, 4-(4-(2,6-difluorophenylamino)quinazolin-6-yl)-2-methoxyphenol]: the half-inhibitory concentration (IC50) in assay [1] was determined as 706 nM; in assay [2] it was 4420 nM; in assay [3], 760 nM. Further, in assay [3], the inhibition at 1 µM turned out to be 57.7%.

As for `COc1cc(-c2ccc3ncnc(Nc4c(F)ccc5[nH]ncc45)c3c2)ccc1O` [Compound 136, 4-(4-(5-fluoro-1H-indazol-4-ylamino)quinazolin-6-yl)-2-methoxyphenol], the IC50 in assay [1] came out at 268 nM; in assay [2], 1130 nM; in assay [3], 350 nM. In addition, the “B-Raf inhibition at 1.0 μM” value in assay [3] was 84.9%.

For `Oc1cccc(-c2ccc3ncnc(Nc4cccc5[nH]ncc45)c3c2)c1` [Compound 143, 3-(4-(1H-indazol-4-ylamino)quinazolin-6-yl)phenol], the values for the IC50 in assay [1], in assay [2] and in assay [3] were 357 nM, 1960 nM and 227 nM, respectively. In addition, the inhibition at 1 µM in assay [3] worked out at 75.4%.

With `COc1cccc(-c2ccc3ncnc(Nc4cccc5[nH]ncc45)c3c2)c1` [Compound 144, N-(1H-indazol-4-yl)-6-(3-methoxyphenyl)quinazolin-4-amine], the IC50 in assay [1] is 472 nM; in assay [2], 3900 nM; in assay [3], 309 nM. For the same compound, the inhibition at 1 µM in assay [3] turned out to be 62.6%.

For the compound `COc1cccc(-c2ccc3nccc(Nc4cccc5[nH]ncc45)c3c2)c1` [Compound 146, N-(1H-indazol-4-yl)-6-(3-methoxyphenyl)quinolin-4-amine], the figures for the IC50 in assay [1], in assay [2] and in assay [3] were 426 nM, 3700 nM and 614 nM, respectively. For the same compound, the “B-Raf inhibition at 1.0 μM” value in assay [3] was 64.3%.

On to `COc1ccc(-c2ccc3ncnc(Nc4cccc5[nH]ncc45)c3c2)cc1` [Compound 147, N-(1H-indazol-4-yl)-6-(4-methoxyphenyl)quinazolin-4-amine], for which the IC50 in assay [1] was 848 nM; in assay [2], 2950 nM; in assay [3], 680 nM. In addition, in assay [3], the inhibition at 1 µM was 50.7%.
